In patent US20200080055A1, “COMPOSITIONS AND METHODS FOR GENERATING HAIR CELLS BY UPREGULATING PI3K” (Frequency Therapeutics, Inc., priority 2018, published 2020):
“Also recorded” adds a separate entry of the source.

Assays:
[1] = tested on: cochlear Lgr5 progenitor cells; experiment: Lgr5+ assay: expansion and enrichment of cochlear Lgr5 progenitor cells in 3D culture; type: cell-based, mouse
Excerpt: “Stem Cell Proliferation Assay” as used herein is an assay to determine the capacity for agent(s) to induce the creation of stem cells from a starting cell population. In an exemplary Stem Cell Proliferation Assay, the number of cells for an initial cell population is harvested from a Lgr5-GFP mouse such as a B6.129P2-Lgr5tm1(cre/ERT2)Cle/J mouse (also known as Lgr5-EGFP-IRES-creERT2 or Lgr5-GFP mouse, Jackson Lab Stock No: 008875) between the age of 0 to 5 days, by isolating the organ of Corti sensory epithelium and dissociating the epithelium into single cells. Approximately 5000 cells are entrapped in 40 μl of culture substrate (for example: Matrigel (Corning, Growth Factor Reduced)) and placed at the center of wells in a 24-well plate with 500 μl of an appropriate culture media, growth factors and agent being tested. Appropriate culture media and growth factors include Advanced DMEM/F12 with media Supplements (1×N2, 1×B27, 2 mM Glutamax, 10 mM HEPES, 1 mM N-acetylcysteine, and 100 U/ml Penicillin/[…] Streptomycin) and growth factors (50 ng/ml EGF, 50 ng/ml bFGF, and 50 ng/ml IGF-1) as well as the agent(s) being assessed are added into each well. Cells are cultured for 10 days in a standard cell culture incubator at 37° C. and 5% CO2, with media change every 2 days. The number of Lgr5+ cells is quantified by counting the number of cells identified as Lgr5+ in an In Vitro Lgr5 activity assay. The fraction of cells that are Lgr5+ is quantified by dividing the number of cells identified as Lgr5+ in a cell population by the total number of cells present in the cell population. The number of hair cells in a population may be measured by staining with hair cell marker (e.g., MyosinVIIa), or using an endogenous reporter of hair cell genes (e.g., Pou4f3-GFP, Atoh1-nGFP) and analyzing using flow cytometry. The fraction of cells that are hair cells is quantified by dividing the number of cells identified as hair cells in a cell population by the total number of cells present in the cell population. Gene and/or protein expression and/or activity is measured in this assay using methods known in the art such as by PCR, Nanostring, immunostaining, RNAseq, RNA hybridization, or Western blot analysis.
Neonatal Lgr5-EGFP-IRES-Cre-ER mice (The Jackson Laboratory, strain 8875) were used to analyze the effects of small molecules on cochlear stem cell expansion (see Barker et al., Nature 449, 1003-7 (2007). This strain allowed for visualization and quantification of EGFP cells.
All animal studies were conducted under an approved institutional protocol per National Institutes of Health guidelines. Using neonatal animals, cochleae were dissected and the organ of Corti (sensory epithelium) was separated from the stria vascularis (ion transport epithelium) and the modiolus (nerve tissue). Epithelia were then collected and treated with TrypLE for 15-20 minutes to obtain single cells. The cells were then filtered ([…]) and suspended in a Matrigel (Corning) dome for 3D culture seeded at 0.5 cochlea per well.
Expansion of Lgr5 Cells: Cells were cultured in a 3D system and bathed in a serum free 1:1 mixture of DMEM and F12, supplemented with Glutamax (GIBCO), N2, B27 (Invitrogen), EGF (50 ng/mL; Chemicon), bFGF (50 ng/mL; Chemicon), IGF-1 (50 ng/mL; Chemicon), and small molecules for seven days. Media was changed every other day. Treatments were run in triplicate or quadruplicate.
Lgr5 cells were quantified after 7-10 days. Cell colonies were dissociated into single cells using TrypLE. The cells were then stained with propidium iodide (PI) and analyzed using a flow cytometer to count Lgr5-EGFP cells. The percentage of viable Lgr5 cells was plotted against the concentration in GraphPad Prism.
Organ of Corti are dissected from Lgr5 GFP+ mice and dissociated as single cells as described above. Background media contains the same supplements and growth factors at the same concentrations as described above. […]

[2] = tested on: HDAC; details: Table 5; cited from earlier work

CC(C)(C)C(=O)Nc1ccc2c(c1)C(=O)C(=O)c1ccccc1-2 [SF1670]
enhancement of CHIR-elicited expansion and enrichment of cochlear Lgr5 progenitor cells ([1]; SF1670 0.1 uM added to CHIR): further enhanced

VO-Ohpic
enhancement of CHIR-elicited expansion and enrichment of cochlear Lgr5 progenitor cells ([1]; VO-Ohpic 3 uM added to CHIR): enhanced

O=C([O-])CCCc1ccccc1.[Na+] [Na phenylbutyrate]
Class selectivity [2]: Class I >

CCn1cc(C(=O)O)c(=O)c2c(N)c(F)c(NC3CCCCC3)cc21 [AS1842856]
enrichment of Lgr5 cells (percentage) ([1]; AS1842856 425 nM combined with VPA 1 mM): enriched according to percentage
expansion of cochlear Lgr5+ progenitor cells in culture ([1]; AS1842856 425 nM in background of EFI): elicits the expansion
LGR5+ cell growth and enrichment / expansion of cochlear progenitor cells ([1]; AS1842856 concentration series in background of EFI): concentration-dependent effects; also recorded: enhances expansion of cochlear progenitor cells

Cc1c[nH]c(-c2cnc(NCCNc3ccc(C#N)cn3)nc2-c2ccc(Cl)cc2Cl)n1 [CHIR99021]
expansion and enrichment of cochlear Lgr5 progenitor cells in culture ([1]; CHIR alone (GSK3 inhibition)): elicits the expansion and enrichment
